In publication PMC4503722, “Novel Phenotypic Outcomes Identified for a Public Collection of Approved Drugs from a Publicly Accessible Panel of Assays” (PLoS ONE, 2015):
Read-outs that look alike come from different tables or passages of the source.

Columns and labels:
Test in all cases: cells
[1] = system: HCT116 cells treated with a GSK3β inhibitor; assay type: cell-based; settings: Homo sapiens
[2] = system: nuclear β-catenin in C2C12 cells; assay type: cell-based; settings: Mus musculus
SNU-C1 = assay type: cell-based; settings: Homo sapiens
HCT116 = assay type: cell-based; settings: Homo sapiens
HeLa cells = assay type: cell-based; settings: Homo sapiens, HeLa, HeLa, read-out: CellCycle G2/M
SW480 = assay type: cell-based; settings: Homo sapiens
INS-1E cells = assay type: cell-based, rat; settings: Rattus norvegicus, INS-1E
RKO = assay type: cell-based
HT-29 = assay type: cell-based; settings: Homo sapiens, HT-29
NCI-H716 cells = assay type: cell-based, Human; settings: Homo sapiens, NCI-H716
DLD-1 = assay type: cell-based; settings: Homo sapiens
Colo320 = assay type: cell-based
[3] = system: endothelial tube formation in co-cultures of ECFCs and ADSCs treated with VEGF; assay type: cell-based, human; settings: Homo sapiens; read-out: Anti-Angiogenesis
[4] = HCT-116, HCT116 pretreated with GSK3b inhibitor, read-out: GSK3b inh pretreated_Viability ATP HCT116
[5] = S2 Table, 20 = no response at highest concentration
[6] = Homo sapiens; basal; Colo 320; read-out: Basal_Viability ATP Colo 320
[7] = SNU-C1, basal, SNU-C1, read-out: Basal_Viability ATP SNU-C1
[8] = HCT-116, basal, HCT116, read-out: Basal_Viability ATP HCT116
[9] = SW480, basal, SW480, read-out: Basal_Viability ATP SW480
[10] = Homo sapiens; basal; RKO; read-out: Basal_Viability ATP RKO
[11] = basal, read-out: Basal_Viability ATP HT-29
[12] = DLD-1, basal, DLD-1, read-out: Basal_Viability ATP DLD-1
[13] = C2C12, S2 Table, module primary assay, 20 / 20.1 codes per legend, read-out: Wnt Pathway

Structure (SMILES) | IC50 [1, 4] [µM] | EC50 (HeLa cells; [5]) [µM] | EC50 (NCI-H716 cells; read-out: GLP 1 Secretion) [µM] | IC50 (Colo320; [6]) [µM] | IC50 (SNU-C1; [7]) [µM] | IC50 (HCT116; [8]) [µM] | IC50 (SW480; [9]) [µM] | EC50 (INS-1E cells; read-out: Insulin Secretion) [µM] | IC50 (RKO; [10]) [µM] | IC50 (HT-29; [11]) [µM] | IC50 (DLD-1; [12]) [µM] | EC50 [2, 13] [µM] | also measured
CCC(C)(C)C(=O)O[C@H]1C[C@@H](C)C=C2C=C[C@H](C)[C@H](CC[C@@H]3C[C@@H](O)CC(=O)O3)[C@H]21 [simvastatin, reference compound] | 4.73 | > 10 | 3.29 | 4.94 | – | – | – | – | – | – | – | – | IC50 ([1]; HCT-116, read-out: HCT-116 (GSK3β) viab. IC50, Table 2, GSK3β inhibitor LY2090314 20 nM, 72 h, Cell TiterGlo, 20 coded): 4.7 µM; EC50 ([2]; C2C12, Table 2, C2C12, […], 20 / 20.1 coded, read-out: Wnt pot. EC50): > 10 µM; IC50 (SNU-C1; SNU-C1, 72 h, Table 2, 72 h, Cell TiterGlo, non-adherent, 20 coded, read-out: SNU-C1 viab. IC50): > 20 µM; IC50 (HCT116; HCT-116, 72 h, read-out: HCT-116 viab. IC50, Table 2, basal, 72 h, Cell TiterGlo, non-adherent, 20 coded): > 20 µM; IC50 (SW480; SW480, 72 h, Table 2, 72 h, Cell TiterGlo, non-adherent, 20 coded, read-out: SW480 viab. IC50): 5.9 µM; IC50 (SW480; SW480, read-out: Basal_Viability ATP SW480): 5.93 µM; EC50 (INS-1E cells; read-out: Ins. sec. EC50): > 10 µM; IC50 (RKO; Homo sapiens, RKO; Table 2; 72 h, Cell TiterGlo, non-adherent; 20 coded; read-out: RKO viab. IC50): > 20 µM; IC50 (HT-29; Table 2, 72 h, Cell TiterGlo, non-adherent, 20 coded, read-out: HT-29 viab. IC50): > 20 µM; EC50 (NCI-H716 cells; read-out: GLP1 sec. EC50): 3.3 µM; IC50 (DLD-1; DLD-1, 72 h, Table 2, 72 h, Cell TiterGlo, non-adherent, 20 coded, read-out: DLD-1 viab. IC50): > 20 µM; IC50 (Colo320; Homo sapiens, COLO 320; Table 2; 72 h, Cell TiterGlo, non-adherent; 20 coded; read-out: Colo320 viab. IC50): 4.9 µM
CC[C@@]1(O)C(=O)OCc2c1cc1n(c2=O)Cc2cc3c(CN(C)C)c(O)ccc3nc2-1 [topotecan] | 0.00144 | > 10 | > 10 | – | 0.301 | 0.0341 | 0.233 | > 10 | 0.0342 | 0.0246 | 0.177 | – | EC50 ([2]; C2C12, read-out: Wnt Pathway): 0.0179 µM; IC50 (Colo320; Homo sapiens, COLO 320, read-out: Basal_Viability ATP Colo 320): 9.42 µM
Nc1nc(Cl)nc2c1ncn2[C@@H]1O[C@H](CO)[C@@H](O)[C@@H]1F [clofarabine] | 0.001 | > 10 | > 10 | > 20 | > 20 | 0.001 | 1.2 | > 10 | 0.001 | > 20 | 0.164 | > 10 | –
COP(=S)(OC)Oc1ccc(Sc2ccc(OP(=S)(OC)OC)cc2)cc1 [temephos] | > 20 | – | > 10 | > 20 | 3.03 | > 20 | 0.0118 | > 10 | – | > 20 | > 20 | > 10 | IC50 [3]: > 10 µM; IC50 (RKO; Homo sapiens, RKO, read-out: Basal_Viability ATP RKO): 12.1 µM
CC[C@H]1CN2CCc3cc(OC)c(OC)cc3[C@@H]2C[C@@H]1C[C@H]1NCCc2cc(OC)c(OC)cc21 [emetine] | – | – | – | – | – | – | – | – | – | – | – | – | IC50 ([1]; HCT-116, GSK3b inhibitor pretreated, read-out: GSK3b inh pretreated_Viability ATP HCT116): 0.001 µM; EC50 ([2]; C2C12, IC50 / EC50, C2C12 beta-catenin translocation, read-out: Wnt Pathway): > 10 µM; IC50 (SNU-C1; SNU-C1, basal, read-out: Basal_Viability ATP SNU-C1): 0.00228 µM; IC50 (HCT116; HCT-116, basal, read-out: Basal_Viability ATP HCT116): 0.0615 µM; EC50 (HeLa cells; IC50 / EC50): > 10 µM; IC50 (SW480; SW480, basal, read-out: Basal_Viability ATP SW480): 0.001 µM; EC50 (INS-1E cells; IC50 / EC50, read-out: Insulin Secretion): > 10 µM; IC50 (RKO; Homo sapiens, RKO; read-out: Basal_Viability ATP RKO): 0.00831 µM; IC50 (HT-29; read-out: Basal_Viability ATP HT-29): 0.0163 µM; EC50 (NCI-H716 cells; IC50 / EC50, read-out: GLP 1 Secretion): > 10 µM; IC50 (DLD-1; DLD-1, basal, read-out: Basal_Viability ATP DLD-1): 0.0116 µM; IC50 (Colo320; Homo sapiens, COLO 320; read-out: Basal_Viability ATP Colo 320): 0.0221 µM
